Each compound was assayed against SOS1/KRAS WT (Homo sapiens (Human), UniProt Q07889) (assay: SOS1/KRAS WT HTRF binding assay (FRET-based protein-protein interaction)). Conditions: inhibition of His6-SOS1 (aa564-1049, 40 nM) binding to GST-KRAS-WT (aa1-188, 40 nM); at least two independent replicates.
SOS1/KRAS WT, sequence (Q07889 564-1049): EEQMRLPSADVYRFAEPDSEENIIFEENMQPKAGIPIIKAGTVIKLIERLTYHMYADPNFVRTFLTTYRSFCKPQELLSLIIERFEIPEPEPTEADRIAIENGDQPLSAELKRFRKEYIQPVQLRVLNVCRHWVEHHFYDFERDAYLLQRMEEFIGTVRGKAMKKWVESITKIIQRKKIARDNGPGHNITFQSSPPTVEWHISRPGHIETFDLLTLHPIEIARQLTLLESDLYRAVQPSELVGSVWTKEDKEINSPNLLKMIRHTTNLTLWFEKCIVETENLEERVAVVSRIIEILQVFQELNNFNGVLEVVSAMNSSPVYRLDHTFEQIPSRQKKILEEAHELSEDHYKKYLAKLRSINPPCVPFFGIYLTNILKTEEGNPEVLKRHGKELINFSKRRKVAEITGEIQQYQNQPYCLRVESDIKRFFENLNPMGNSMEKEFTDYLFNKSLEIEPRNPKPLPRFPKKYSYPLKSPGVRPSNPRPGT
In short: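 Time-resolved FRET at 665 nm, read 4 hr after adding anti-GST-Eu(K) (4 nM) and anti-6His-XL665 (20 nM), tracked SOS1(aa564-1049)–KRAS WT(aa1-188) association. Both proteins were at 40 nM, pre-incubated 60 min at room temperature with compound. Max/min signals came from 0.05% DMSO and 10 μM reference, with four-parameter logistic IC50.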
With `COCC1(C)C(=O)N(C)c2cc3c(N[C@H](C)c4cccc(C(F)(F)C(C)(C)O)c4)nnc(C)c3cc21` (stereo partly drawn) [Compound 91, D8-[[(1R)-1-[3-(1,1-difluoro-2-hydroxy-2-methyl-propyl)phenyl]ethyl]amino]-3-(methoxymethyl)-1,3,5-trimethyl-pyrrolo[3,2-g]phthalazin-2-one] the “SOS1/KRAS WT HTRF Binding assay pIC50” value was 7.75.

Same assay, conditions: inhibition of His6-SOS1 (aa564-1049, 40 nM) binding to GST-KRAS-WT (aa1-188, 40 nM); at least two independent replicates; read-out: SOS1/KRAS WT HTRF Binding assay pIC50 (converted)
`Cc1nnc(N[C@H](C)c2cccc(C(F)(F)C(C)(C)O)c2)c2cc3c(cc12)C1(CCOCC1)C(=O)N3C1CC1` [Compound 120, 1-cyclopropyl-5-methyl-8-[[(1R)-1-[3-(1,1-difluoro-2-hydroxy-2-methyl-propyl)phenyl]ethyl]amino]spiro [pyrrolo[2,3-g]phthalazine-3,4′-tetrahydropyran]-2-one] showed an IC50 of 10.5 nM. Work on `Cc1nnc(N[C@H](C)c2cccc(C(F)(F)C(C)(C)O)c2F)c2cc3c(cc12)n(C)c(=O)n3C1CC1` [Compound 33, 3-cyclopropyl-1,8-dimethyl-5-[[(1R)-1-[3-(1,1-difluoro-2-hydroxy-2-methyl-propyl)-2-fluoro-phenyl]ethyl]amino]imidazo[4,5-g]phthalazin-2-one] yielded an IC50 of 9.77 nM. For `COC1(C)C(=O)N(C2CC2)c2cc3c(N[C@H](C)c4cccc(C(F)(F)C(C)(C)O)c4)nnc(C)c3cc21` (stereo partly drawn) [Compound 117, 1-cyclopropyl-3-methoxy-3,5-dimethyl-8-[[(1R)-1-[3-(1,1-difluoro-2-hydroxy-2-methyl-propyl)phenyl]ethyl]amino]pyrrolo [2,3-g]phthalazin-2-one], the IC50 was 9.55 nM. `Cc1nnc(N[C@H](C)c2cccc(C(F)(F)C(C)(C)O)c2F)c2cc3c(cc12)N(C)C(=O)C31CCOCC1` [Compound 115, 1,8-dimethyl-5-[[(1R)-1-[3-(1,1-difluoro-2-hydroxy-2-methyl-propyl)-2-fluoro-phenyl]ethyl]amino]spiro[pyrrolo[3,2-g]phthalazine-3,4′-tetrahydropyran]-2-one] gave an IC50 of 6.61 nM. `CCn1c(=O)n(C)c2cc3c(C)nnc(N[C@H](C)c4cccc(C(F)(F)F)c4)c3cc21` [Compound 9, 3-ethyl-1,8-dimethyl-5-[[(1R)-1-[3-(trifluoromethyl)phenyl]ethyl]amino] imidazo[4,5-g]phthalazin-2-one] was tested, and the IC50 was 12 nM. In the case of `COC1(C)C(=O)N(C)c2cc3c(C)nnc(N[C@H](C)c4cccc(C(F)(F)CO)c4F)c3cc21` (stereo partly drawn) [Compound 176, 3-methoxy-1,3,8-trimethyl-5-[[(1R)-1-[3-(1,1-difluoro-2-hydroxy-ethyl)-2-fluoro-phenyl]ethyl]amino]pyrrolo[3,2-g]phthalazin-2-one], the IC50 is reported as 10.7 nM. With `Cc1nnc(N[C@H](C)c2cccc(C(F)(F)CN)c2F)c2cc3c(cc12)n(C)c(=O)n3C` [Compound 41, 1,3,8-trimethyl-5-[[(1R)-1-[3-(2-amino-1,1-difluoro-ethyl)-2-fluoro-phenyl]ethyl]amino]imidazo[4,5-g]phthalazin-2-one] the IC50 was 16.2 nM. `Cc1nnc(N[C@H](C)c2cccc(C(F)(F)CO)c2F)c2cc3c(cc12)n(C)c(=O)n3C` [Compound 7, 5-[[(1R)-1-[3-(1,1-difluoro-2-hydroxy-ethyl)-2-fluoro-phenyl]ethyl]amino]-1,3,8-trimethyl-imidazo[4,5-g]phthalazin-2-one] gave an IC50 of 17.4 nM. `CCOC1(C)C(=O)N(C2CC2)c2cc3c(N[C@H](C)c4cccc(C(F)(F)CO)c4F)nnc(C)c3cc21` (stereo partly drawn) [Compound 164, 1-cyclopropyl-3-ethoxy-3,5-dimethyl-8-[[(1R)-1-[3-(1,1-difluoro-2-hydroxy-ethyl)-2-fluoro-phenyl]ethyl]amino]pyrrolo[2,3-g]phthalazin-2-one] gave an IC50 of 11.5 nM. Compound `COCC1(C)C(=O)N(C)c2cc3c(N[C@H](C)c4cccc(C(F)(F)CO)c4)nnc(C)c3cc21` (stereo partly drawn) [Compound 106, 8-[[(1R)-1-[3-(1,1-difluoro-2-hydroxy-ethyl)phenyl]ethyl]amino]-3-(methoxymethyl)-1,3,5-trimethyl-pyrrolo[3,2-g]phthalazin-2-one] has an IC50 of 12 nM. `Cc1nnc(N[C@H](C)c2cccc(C(F)(F)F)c2)c2cc3[nH]c(=O)n(C)c3cc12` [Compound 145, 1,8-dimethyl-5-[[(1R)-1-[3-(trifluoromethyl)phenyl]ethyl]amino]-3H-imidazo[4,5-g]phthalazin-2-one] was tested, and the IC50 was 66.1 nM. Compound `COCC1(C)C(=O)N(C)c2cc3c(N[C@H](C)c4cccc(C(F)(F)CO)c4F)nnc(C)c3cc21` (stereo partly drawn) [Compound 94, 8-[[(1R)-1-[3-(1,1-difluoro-2-hydroxy-ethyl)-2-fluoro-phenyl]ethyl]amino]-3-(methoxymethyl)-1,3,5-trimethyl-pyrrolo[3,2-g]phthalazin-2-one] has an IC50 of 8.91 nM. Compound `COC1(C)C(=O)N(C)c2cc3c(N[C@H](C)c4cccc(C(F)(F)C(C)(C)O)c4)nnc(C)c3cc21` (stereo partly drawn) [Compound 90, 3-methoxy-1,3,5-trimethyl-8-[[(1R)-1-[3-(1,1-difluoro-2-hydroxy-2-methyl-propyl)phenyl]ethyl]amino]pyrrolo [2,3-g]phthalazin-2-one] has an IC50 of 10.7 nM. In the case of `Cc1nnc(N[C@H](C)c2cccc(C(F)(F)C(C)(C)O)c2)c2cc3c(cc12)n(C)c(=O)n3C(C)(C)C` [Compound 103, 3-tert-butyl-1,8-dimethyl-5-[[(1R)-1-[3-(1,1-difluoro-2-hydroxy-2-methyl-propyl)phenyl]ethyl]amino]imidazo [4,5-g]phthalazin-2-one], the IC50 is reported as 7.94 nM. `Cc1c([C@@H](C)Nc2nnc(C)c3cc4c(cc23)N(C)C(=O)C42CCCC2)cccc1C(F)(F)CO` [Compound 193, 1′,5′-dimethyl-8′-[[(1R)-1-[3-(1,1-difluoro-2-hydroxy-ethyl)-2-methyl-phenyl]ethyl]amino]spiro[cyclopentane-1,3′-pyrrolo[2,3-g]phthalazine]-2′-one] showed an IC50 of 8.71 nM. In the case of `Cc1c(-c2ccn[nH]2)cccc1[C@@H](C)Nc1nnc(C)c2cc3c(cc12)n(C)c(=O)n3C` [Compound 155, 1,3,8-trimethyl-5-[[(1R)-1-[2-methyl-3-(1H-pyrazol-5-yl)phenyl]ethyl]amino]imidazo[4,5-g]phthalazin-2-one], the IC50 is reported as 30.9 nM. With `Cc1nnc(N[C@H](C)c2cccc(C(F)(F)CO)c2F)c2cc3c(cc12)n(C)c(=O)n3C1CCC1` [Compound 21, 3-cyclobutyl-1,8-dimethyl-5-[[(1R)-1-[3-(1,1-difluoro-2-hydroxy-ethyl)-2-fluoro-phenyl]ethyl]amino]imidazo[4,5-g]phthalazin-2-one] the IC50 was 9.77 nM. Compound `Cc1nnc(N[C@H](C)c2cccc(C(F)(F)F)c2)c2cc3c(cc12)n(C)c(=O)n3C(C)C#N` (stereo partly drawn) [Compound 149, 2-[1,8-dimethyl-2-oxo-5-[[(1R)-1-[3-(trifluoromethyl)phenyl]ethyl]amino]imidazo[4,5-g]phthalazin-3-yl]propanenitrile] has an IC50 of 10.2 nM. With `CCn1c(=O)n(C)c2cc3c(C)nnc(N[C@H](C)c4cccc(C(F)F)c4F)c3cc21` [Compound 20, 3-ethyl-1,8-dimethyl-5-[[(1R)-1-[3-(difluoromethyl)-2-fluoro-phenyl]ethyl]amino]imidazo[4,5-g]phthalazin-2-one] the IC50 was 10 nM. `CCOC1(C)C(=O)N(C)c2cc3c(C)nnc(N[C@H](C)c4cccc(C(F)(F)C(C)(C)O)c4)c3cc21` (stereo partly drawn) [Compound 184, 3-ethoxy-1,3,8-trimethyl-5-[[(1R)-1-[3-(1,1-difluoro-2-hydroxy-2-methyl-propyl)phenyl]ethyl]amino]pyrrolo [3,2-g]phthalazin-2-one] was tested, and the IC50 was 14.8 nM. In the case of `Cc1nnc(N[C@H](C)c2cccc(C(F)(F)C(C)(C)O)c2F)c2cc3c(cc12)C1(CCOCC1)C(=O)N3C` [Compound 73, 1,5-dimethyl-8-[[(1R)-1-[3-(1,1-difluoro-2-hydroxy-2-methyl-propyl)-2-fluoro-phenyl]ethyl]amino]spiro[pyrrolo [2,3-g]phthalazine-3,4′-tetrahydropyran]-2-one], the IC50 is reported as 6.92 nM. In the case of `Cc1c([C@@H](C)Nc2nnc(C)c3cc4c(cc23)n(C(C)C)c(=O)n4C)cccc1C(F)(F)CO` [Compound 85, 3-isopropyl-1,8-dimethyl-5-[[(1R)-1-[3-(1,1-difluoro-2-hydroxy-ethyl)-2-methyl-phenyl]ethyl]amino]imidazo[4,5-g]phthalazin-2-one], the IC50 is reported as 8.32 nM. Compound `Cc1c(-c2cc(C(F)(F)F)nn2C)cccc1[C@@H](C)Nc1nnc(C)c2cc3c(cc12)n(C)c(=O)n3C` [Compound 152, 1,3,8-trimethyl-5-[[(1R)-1-[2-methyl-3-[2-methyl-5-(trifluoromethyl)pyrazol-3-yl]phenyl]ethyl]amino]imidazo[4,5-g]phthalazin-2-one] has an IC50 of 85.1 nM. `CCOC1(C)C(=O)N(C)c2cc3c(N[C@H](C)c4cccc(C(F)(F)CO)c4F)nnc(C)c3cc21` (stereo partly drawn) [Compound 135, 3-ethoxy-1,3,5-trimethyl-8-[[(1R)-1-[3-(1,1-difluoro-2-hydroxy-ethyl)-2-fluoro-phenyl]ethyl]amino]pyrrolo[2,3-g]phthalazin-2-one] showed an IC50 of 10 nM. `Cc1nnc(N[C@H](C)c2cccc(C(F)(F)F)c2)c2cc3c(cc12)OC1(CC1)C(=O)N3C(C)C` [Compound 25, 4′-isopropyl-9′-methyl-6′-[[(1R)-1-[3-(trifluoromethyl)phenyl]ethyl]amino]spiro[cyclopropane-1,2′-pyridazino[4,5-g][1,4]benzoxazine]-3′-one] was tested, and the IC50 was 63.1 nM. With `Cc1nnc(N[C@H](C)c2cccc(C(F)F)c2)c2cc3c(cc12)n(C)c(=O)n3C(C)(C)C` [Compound 205, 3-tert-butyl-5-[[(1R)-1-[3-(difluoromethyl)phenyl]ethyl]amino]-1,8-dimethyl-imidazo[4,5-g]phthalazin-2-one] the IC50 was 11.7 nM.
